Laboratory results from US5504084A, “Pharmaceutical for the treatment of skin disorders” (priority 1994, dated 1996).

Columns and labels:
psoriasis patients = conditions: cited from earlier work
[1] = test system: Normal human epidermal keratinocytes (NHEK); assay: Inhibition of NHEK proliferation, BrdU incorporation (in vitro DNA synthesis); format: cell-based; conditions: 18-24 hours; for inhibition at 100 µM: 10^-4 M; for inhibition at 10 µM: 10^-5 M
Procedure: Cells: Normal human epidermal keratinocytes (NHEK, Clonetics Corp., San Diego, Calif.).
Labelling Reagent: Aqueous solution of 5-bromo-2'-deoxyuridine and 5-fluoro-2'-deoxyuridine (Amersham Corp., II).
Peroxidase-anti-mouse Immunoglobulin (Ig from pooled sheep antisera, Amersham Corp., II).
Peroxidase substrate: ABTS (2,2'-azino-di-(3-ethyl-benzthiazoline sulphonate)! Amersham Corp., II).
Compounds: Compounds are dissolved in absolute ethanol (final concentration≤0.1%). Various drug concentrations are prepared in thymidine free keratinocyte growth medium (KGM without hydrocortisone, Clonetics Corp., Calif.) in the presence of BrdU.
Dynatech MR 7000 microplate reader with 410 nm filter.
Keratinocytes are seeded into 96-well flat bottom (6.4 mm diameter) culture dishes at 5,000 cells/well. The cells are allowed to grow (2-3days) and then dosed with various concentrations of compounds prepared in KGM without thymidine, without hydrocortisone in the presence of BrdU (1:200). After 18-24 hours at 37° C., 5% CO2, the cells are washed with warm PBS and fixed with acetic acid/ethanol for 30 minutes at room temperature. After washing the wells with PBS/0.1% Tween-20, the remaining electrostatic sites on the polystyrene plates are blocked by 3% BSA in PBS/0.1% Tween-20. Anti-bromodeoxyuridine antibody solution with nuclease for denaturing DNA is added to each well and allowed to incubate for 2 hours at 37° C., 5% CO2. The plates were again washed with PBS/0.1% Tween-20 and then incubated at room temperature with peroxidase lined anti-mouse immunoglobulin (1:600). After washing off the second antibody, 1 mM ABTS substrate solution is added to all wells until the desired color intensity (green) is achieved. The color development is stopped by the addition of a Stopping Agent. The absorbance is then measured at 410 nm with a microplate reader using cells in wells not exposed to BrdU as blanks.
The intensity of the color reaction is proportional to the BrdU incorporated by proliferating cells. The amount of BrdU incorporated in treated cells in wells is compared to those of untreated controls as follows: [formula]

[2] = Acute toxicity after intraperitoneal administration, NMRI mouse; conditions: in vivo, ip, 3 weeks, Litchfield and Wilcox
Procedure: The acute toxicity after intraperitoneal administration of the test substances was determined with NMRI mice (20 to 25 g) and SD rats (120 to 195 g). The test substance was suspended in a 1% strength sodium carboxymethylcellulose solution. The different dosages of the test substance were administered to the mice in a volume of 10 ml/kg of body weight and to the rats in a volume of 5 ml/kg of body weight. Per dosage, 10 animals were used. After 3 weeks, the acute toxicity was determined by the method of Litchfield and Wilcox.

[3] = European Patent 13,376; cited from earlier work

| Compound | most limiting side effect (psoriasis patients; in vivo, po) | side effects (psoriasis patients; in vivo, po) | success rate in severe psoriasis (psoriasis patients; oral, patients with severe psoriasis) | inhibition at 100 µM [1] | inhibition at 10 µM [1] | IC50 [1] | LD50 at 504 h [2] | inhibition at 1 µM ([1]; 10^-6 M) | anti-inflammatory property [3] |
| --- | --- | --- | --- | --- | --- | --- | --- | --- | --- |
| cyclosporine A | kidney dysfunction | a number of side effects, most of which are transient and not serious | high success rate | – | – | – | – | – | – |
| C/C(O)=C(\C#N)C(=O)Nc1ccc(C(F)(F)F)cc1 [Compound 2, N-(4-trifluoromethylphenyl)-2-cyano-3-hydroxycrotonamide] | – | – | – | 84% | 49% | 15.5 µM | 150 mg/kg | – | – |
| Cc1oncc1C(=O)Nc1ccc(C(F)(F)F)cc1 [Compound 1, N-(4-trifluoromethylphenyl)-5-methylisoxazole-4-carboxamide] | – | – | – | 87% | 22% | 18 µM | – | 12% | anti-inflammatory |
